Laboratory results from ChEMBL document CHEMBL3351228, “Synthesis and biological evaluation of novel pyrimidine-benzimidazol hybrids as potential anticancer agents” (Bioorg Med Chem Lett, 2014).

Assays:
Assay type in all cases: functional
MGC-803 [1] = assay: Induction of cell cycle arrest in human MGC803 cells assessed as accumulation at S phase at 1.6 umol/L after 12 hrs by propidium iodide double staining based flow cytometry (reference value: 41.69%)
MGC-803 [2] = assay: Induction of apoptosis in human MGC803 cells assessed as late apoptotic cell level at 0.4 umol/L after 12 hrs by annexin V and propidium iodide double staining based flow cytometry (reference value: 2.6%)
MGC-803 [3] = assay: Induction of apoptosis in human MGC803 cells assessed as late apoptotic cell level at 0.4 umol/L after 24 hrs by annexin V and propidium iodide double staining based flow cytometry (reference value: 5.3%)
MGC-803 [4] = assay: Induction of cell cycle arrest in human MGC803 cells assessed as accumulation at G0/G1 phase at 1.6 umol/L after 24 hrs by propidium iodide double staining based flow cytometry (reference value: 40.37%)
MGC-803 [5] = assay: Induction of apoptosis in human MGC803 cells assessed as late apoptotic cell level at 0.8 umol/L after 12 hrs by annexin V and propidium iodide double staining based flow cytometry (reference value: 2.6%)
MGC-803 [6] = assay: Induction of cell cycle arrest in human MGC803 cells assessed as accumulation at G2/M phase at 0.4 umol/L after 24 hrs by propidium iodide double staining based flow cytometry (reference value: 12.89%)
MGC-803 [7] = assay: Induction of apoptosis in human MGC803 cells assessed as early apoptotic cell level at 0.8 umol/L after 24 hrs by annexin V and propidium iodide double staining based flow cytometry (reference value: 5.2%)
MGC-803 [8] = assay: Induction of apoptosis in human MGC803 cells assessed as early apoptotic cell level at 0.4 umol/L after 24 hrs by annexin V and propidium iodide double staining based flow cytometry (reference value: 5.2%)
MGC-803 [9] = assay: Induction of cell cycle arrest in human MGC803 cells assessed as accumulation at G0/G1 phase at 0.8 umol/L after 12 hrs by propidium iodide double staining based flow cytometry (reference value: 41.38%)
MGC-803 [10] = assay: Induction of apoptosis in human MGC803 cells assessed as early apoptotic cell level at 1.6 umol/L after 12 hrs by annexin V and propidium iodide double staining based flow cytometry (reference value: 4.8%)
MGC-803 [11] = assay: Induction of cell cycle arrest in human MGC803 cells assessed as accumulation at G0/G1 phase at 0.4 umol/L after 24 hrs by propidium iodide double staining based flow cytometry (reference value: 40.37%)
MGC-803 [12] = assay: Induction of cell cycle arrest in human MGC803 cells assessed as accumulation at G0/G1 phase at 1.6 umol/L after 12 hrs by propidium iodide double staining based flow cytometry (reference value: 41.38%)

COc1ccc(Nc2cc(-c3ccccc3)nc(SCc3nc4cc(Cl)ccc4[nH]3)n2)cc1
Activity (MGC-803 [1]): 24.84%
Activity (MGC-803 [2]): 7.2%
Activity (MGC-803 [3]): 9.8%
Activity (MGC-803 [4]): 3.49%
Activity (MGC-803 [5]): 5.8%
Activity (MGC-803 [6]): 27.43%
Activity (MGC-803 [7]): 49.2%
Activity (MGC-803 [8]): 25.4%
Activity (MGC-803 [9]): 28.15%
Activity (MGC-803 [10]): 33.1%
Activity (MGC-803 [11]): 46.04%
Activity (MGC-803 [12]): 8.2%
